Experimental data from publication PMC6017957, “Synthesis, Anti-Proliferative Activity Evaluation and 3D-QSAR Study of Naphthoquinone Derivatives as Potential Anti-Colorectal Cancer Agents” (Molecules : A Journal of Synthetic Chemistry and Natural …, 2018).
Where two headings read alike, the source gives them in different places.

Legend:
[1] = test system: HT-29 colorectal cancer cells; assay: MTT anti-proliferative assay against HT-29 cells; format: cell-based, human; details: for Selectivity Index: SI = IC50Fibroblast/IC50HT-29cells; for Cytotoxic activity category against HT-29: classified by HT-29 IC50
Experimental: (§1) The toxicity of the thirty-six compounds was determined in vitro by means of the MTT assay. Doxorubicin, a drug widely used to treat different types of cancer, was employed as a positive control, whereas the solvent (DMSO) was used as negative control.
(§2) Test compounds were dissolved in DMSO to obtain stock solutions that were maintained as small aliquots at −20 °C. At time of drug addition, an aliquot was thawed and diluted to obtain the desired final maximum test concentration of 100 μM, with complete medium. The final percentage of DMSO in the wells was less than 1% (v/v). […] Anti-Proliferative Assay
(§3) Doxorubicin, a drug widely used to treat different types of cancer, was used as a positive control. After 48 h, the medium was removed and cells were incubated with MTT solution (0.25 mg/mL). Four hours later, the medium was carefully aspired and formazan crystals were dissolved in DMSO (100 μL). The OD550 was measured using a plate reader (Multiskan Go, Thermo Scientific, Waltham, MA, USA). […] The selectivity index (SI), was calculated as a ratio of IC50Fibroblast/IC50HT-29cells.
(§4) The results are expressed as the mean of triplicate measurements in at least two independent experiments.

[2] = test system: fibroblasts PCS-201-012; assay: MTT cytotoxicity assay against normal dermal fibroblasts; format: cell-based; details: Fibroblast, value with 95% confidence interval, read-out: PCS-201-012 IC50 μM (95% CI)
Experimental: as §1, §2, §3, §4

[3] = Homo sapiens, HT-29, 48 h, MTT, 48 h, 0–100 µM, value with 95% confidence interval, read-out: HT-29 IC50 μM (95% CI)
[4] = Homo sapiens, HT-29, −logIC50 against HT-29, CoMFA training and test sets, read-out: pIC50 Experimental (converted)

SMILES	IC50 [1, 3] [µM]	IC50 [1, 4] [µM]	IC50 ([1]; MTT, 48 h, 0–100 µM, value with 95% confidence interval, read-out: HT-29 IC50 μM (95% CI)) [µM]	Selectivity Index [1]	IC50 [2] [µM]	Cytotoxic activity category against HT-29 [1]	IC50 ([1]; Homo sapiens, HT-29, MTT, 48 h, 0–100 µM, value with 95% confidence interval, read-out: HT-29 IC50 μM (95% CI)) [µM]	IC50 ([1]; Homo sapiens, −logIC50 against HT-29, CoMFA training and test sets, read-out: pIC50 Experimental (converted)) [µM]
O=C(c1cccs1)c1cc2c(s1)C(=O)c1c(O)cccc1C2=O [Compound 7, 8-hydroxy-2-(thiophen-2-ylcarbonyl)naphtho[2,3-b]thiophene-4,9-dione]	1.73	1.73			4.56			
NC1=CC(=O)c2ccccc2C1=O [Compound 2, 2-Aminonaphthalene-1,4-dione]				0.30	7.34		24.6	24.6
CCN(CC)C(=O)c1cc2c(s1)C(=O)c1c(Cl)cccc1C2=O [Compound 8, 8-chloro-N,N-diethyl-4,9-dioxo-4,9-dihydronaphtho[2,3-b]thiophene-2-carboxamide]	6.89	6.89		0.37	2.56			
O=C1c2ccccc2C(=O)C2OC12 (stereo not drawn) [Compound 1a, 1a,7a-Dihydronaphtho[2,3-b]oxirene-2,7-dione]	10.8	10.8						
CCN(CC)C(=O)c1cc2c(o1)C(=O)c1ccccc1C2=O [Compound 6, N,N-diethyl-4,9-dioxo-4,9-dihydronaphtho[2,3-b]furan-2-carboxamide]	2.67	2.67		0.56	1.49	highly active		
COc1cccc2c1C(=O)c1c(O)c3c(c(O)c1C2=O)C[C@@](O)(C(=O)CO)C[C@@H]3O[C@H]1C[C@H](N)[C@H](O)[C@H](C)O1 [Doxorubicin, reference compound]	1.07							
CCc1noc(-c2cc3c(s2)C(=O)c2ccccc2C3=O)n1 [Compound 9, 2-(3-ethyl-1,2,4-oxadiazol-5-yl)naphtho[2,3-b]thiophene-4,9-dione]	3.07	3.07		0.34	1.03			

More lines, main results first:

IC50 [1, 3] [µM]	IC50 [1, 4] [µM]	IC50 ([1]; MTT, 48 h, 0–100 µM, value with 95% confidence interval, read-out: HT-29 IC50 μM (95% CI)) [µM]	SMILES	Selectivity Index [1]	IC50 [2] [µM]	Cytotoxic activity category against HT-29 [1]	IC50 ([1]; Homo sapiens, HT-29, MTT, 48 h, 0–100 µM, value with 95% confidence interval, read-out: HT-29 IC50 μM (95% CI)) [µM]	IC50 ([1]; Homo sapiens, −logIC50 against HT-29, CoMFA training and test sets, read-out: pIC50 Experimental (converted)) [µM]
23.7 to 88.1	21.7	21.7	CCCCc1cc2c(o1)C(=O)c1ccccc1C2=O [Compound 4f, 2-Butylnaphtho[2,3-b]furan-4,9-dione]	0.46	10			
4.61			CC(=O)c1cc2c(o1)C(=O)c1ccccc1C2=O [Compound 4m, 2-Acetylnaphtho[2,3-b]furan-4,9-dione]	0.76	3.5	highly active		
24.9	24.9		CCc1cc2c(o1)C(=O)c1ccccc1C2=O [Compound 4e, 2-Ethylnaphtho[2,3-b]furan-4,9-dione]	0.80	20.1			
> 100			C/C=C/C1=C(O)C(=O)c2ccccc2C1=O [Compound 4a, 2-Hydroxy-3-[(1E)-prop-1-en-1-yl]naphthalene-1,4-dione]					
57.3			CC12OC1C(=O)c1ccccc1C2=O (stereo not drawn) [Compound 3b, 1a-Methyl-1a,7a-dihydronaphtho[2,3-b]oxirene-2,7-dione]					
14.8			O=C1C(=O)c2ccccc2C2=C1CC(c1ccccc1)O2 (stereo not drawn) [Compound 4r, 2-Phenyl-2,3-dihydronaphtho[1,2-b]furan-4,5-dione]	0.56	8.2			
30.2			O=C1C2=C(OC(c3ccccc3)C2)C(=O)c2ccccc21 (stereo not drawn) [Compound 4q, 2-Phenyl-2,3-dihydronaphtho[2,3-b]furan-4,9-dione]	0.30	9.16			
17.6	17.6		Cc1cc2c(o1)C(=O)c1ccccc1C2=O [Compound 4d, 2-Methylnaphtho[2,3-b]furan-4,9-dione]	1.05	18.5	highly active		
> 100			CC1=C(N)C(=O)c2ccccc2C1=O [Compound 3a, 2-Amino-3-methylnaphthalene-1,4-dione]					
13.9	13.9		COC(=O)c1nc2c(s1)C(=O)c1ccccc1C2=O [Compound 5c, Methyl 4,9-Dioxo-4,9-dihydronaphtho[2,3-d][1,3]thiazole-2-carboxylate]	0.52	7.26			
